Measured values reported in patent US9156790B2, “Anticancer P21-activated kinase inhibitors” (Ohio State Innovation Foundation, priority 2013, dated 2015).
“Also recorded” adds a separate entry of the source.

Key:
[1] = tested on: PDK1 phosphorylation of Akt (Thr308); experiment: Western blot, PDK1 phosphorylation of Akt (Thr308) in thyroid cancer cells; type: cell-based, Human; details: BCPAP; for PDK1 phosphorylation of Akt (Thr308) (Western blot): 7.5 μM, 6 h, FTC133 and TPC1 cells (FIG. 3); for Dose-dependency of PDK-mediated Akt phosphorylation: dose-response, 6 hours, FTC133 and TPC1 cells (FIG. 4A)
Procedure: Protein isolation and Western blot were performed as previously described. Ringel et al., Cancer research 61:6105-6111 (2001). 25 μg of total cell lysates were loaded into 4-12% SDS-PAGE, electrophoresed, and transferred to nitrocellulose membranes for immunoblotting. Primary antibodies against Akt (#9272), phospho-Akt (Thr308) (#2965), p44/42 MAPK (Erk1/2) (#9107), phospho-p44/42 MAPK (Erk1/2) (Thr202/Tyr204) (#4377) and GAPDH (#2118) were obtained from Cell Signaling Technology (Danvers, Mass., USA). Antibody against Vimentin (V6630) and phospho-Ser55 Vimentin were from Sigma-Aldrich, Inc. (St. Louis, Mo.) and MBL Co. (Nagoya, Japan), respectively. Antibodies against total and phosphorylated S6 were from Cell Signaling Technology®.
The ability of the compounds with in vitro anti-PAK1 activity was assessed for activity […] in thyroid cancer cells. In addition, because the compounds are based on the structure of a PDK1 inhibitor, PDK1 inhibitory activity was also assessed. Inhibitory activity in cells was estimated using Western blot with primary antibodies directed against kinase-specific phosphorylation sites; serine 56 of vimentin for PAK and threonine 308 of Akt for PDK1. BCPAP, TPC1, and FTC133 thyroid cancer cells were utilized. BCPAP and TPC1 are derived from PTC and have BRAF V600E and RET/PTC1 rearrangements, respectively. FTC133 is derived from a follicular thyroid cancer with an inactivating mutation of PTEN. Similar to the kinase screening assay, cells were treated with the six compounds or OSU-03012 at 7.5 μM concentration or with DMSO vehicle alone. The results were not entirely consistent across the three cell lines presumably related to mutation status or other factors. OSU-03012 inhibited both PDK1 and PAK-mediated phosphorylation of targets as predicted.
The dose-dependency of compounds 4 and 15 was next assessed (FIG. 4). […] Due to the important role that ERK activation plays in thyroid cancer, and its signaling activation by thyroid oncogenes, the effects of the compounds on ERK phosphorylation was also assessed.

C-RAF = C-RAF (Homo sapiens, UniProt P04049); experiment: Kinase profiling panel: C-RAF; type: biochemical; details: 5 μM compound; average of triplicate
Procedure: To further probe the selectivity of the compounds 4 and 15, they were subjected for kinase profiling service for screening against a panel of other kinases selected based on the kinase tree at 5 μM concentration, at or above the IC50 for the two compounds versus PAK in both in vitro and cell-based assays. […] PAK1 was not available for testing using this system thus it was not possible to compare directly in this assay system.

C-RAF, sequence (P04049 whole entry, species assumed): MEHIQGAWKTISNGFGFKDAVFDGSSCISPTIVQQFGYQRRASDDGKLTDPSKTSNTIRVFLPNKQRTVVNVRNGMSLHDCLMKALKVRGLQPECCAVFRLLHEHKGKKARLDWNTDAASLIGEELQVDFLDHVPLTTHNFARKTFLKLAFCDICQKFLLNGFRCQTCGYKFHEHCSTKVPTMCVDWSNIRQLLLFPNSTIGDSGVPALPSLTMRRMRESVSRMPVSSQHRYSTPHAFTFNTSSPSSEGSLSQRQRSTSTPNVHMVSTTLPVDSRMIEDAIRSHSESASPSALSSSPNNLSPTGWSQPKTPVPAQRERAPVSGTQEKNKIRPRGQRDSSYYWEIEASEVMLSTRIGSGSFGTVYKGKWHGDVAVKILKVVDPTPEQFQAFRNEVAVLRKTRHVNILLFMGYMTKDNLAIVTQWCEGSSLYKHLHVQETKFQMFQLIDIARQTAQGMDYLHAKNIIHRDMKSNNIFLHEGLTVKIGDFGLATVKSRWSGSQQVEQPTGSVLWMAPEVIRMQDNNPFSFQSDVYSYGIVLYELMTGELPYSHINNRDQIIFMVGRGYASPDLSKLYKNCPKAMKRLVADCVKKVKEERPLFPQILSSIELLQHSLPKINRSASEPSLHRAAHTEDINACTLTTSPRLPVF

| Compound | PDK1 phosphorylation of Akt (Thr308) (Western blot) [1] | Dose-dependency of PDK-mediated Akt phosphorylation [1] | % activity vs. DMSO, C-RAF (C-RAF) |
| --- | --- | --- | --- |
| CC(C)NC(=O)c1cc(-c2ccc3ccc4ccccc4c3c2)n(-c2ccc(NC(=O)CN)cc2)n1 [Compound 15, 1-(4-(2-Aminoacetamido)phenyl)-N-isopropyl-5-(phenanthren-3-yl)-1H-pyrazole-3-carboxamide] | without altering PDK1 activity; also recorded: did not block PDK1-mediated Akt phosphorylation | not reduced | 108% |
| NCCC(=O)Nc1ccc(-n2nc(C(F)(F)F)cc2-c2ccc3ccc4ccccc4c3c2)cc1 [Compound 4, 3-amino-N-(4-(5-(phenanthren-3-yl)-3-(trifluoromethyl)-1H-pyrazol-1-yl)phenyl)-propanamide] | without altering PDK1 activity; also recorded: did not block PDK1-mediated Akt phosphorylation | not reduced | 104% |
